# Activity calls are given as the source filed them. The calls are words filed in the database; no cut-off is given here.
# Key:
# [1] = Toxicity in dog assessed as vomiting at 3 to 300 nmol/kg, sc; set-up: species or system Canis lupus familiaris; conditions: in vivo, dose 3-300 nmol/kg
# [2] = system: Rattus norvegicus; experiment: Appetite suppressing activity in HFD-fed DIO rat model assessed as reduction in body weight administered subcutaneously once daily measured for 21 days; assay type: functional, organism-based; conditions: dose 0.7-22 nmol/kg, route sc, time 21.0 day
# [3] = system: Rattus norvegicus; experiment: Appetite suppressing activity in HFD-fed DIO rat model assessed as body weight lost at 0.7 nmol/kg, sc qd measured after 21 days; assay type: functional; conditions: time 21 day
# [4] = Solubility of compound at pH 4 incubated overnight by UPLC analysis; assay type: physicochemical; conditions: buffer
# [5] = target: T1, Calcitonin receptor (Homo sapiens, UniProt P30988); experiment: Agonist activity at human CTR transduced in human HeLa cells by cAMP assay; assay type: functional, cell-based
# T1 sequence (P30988 whole entry): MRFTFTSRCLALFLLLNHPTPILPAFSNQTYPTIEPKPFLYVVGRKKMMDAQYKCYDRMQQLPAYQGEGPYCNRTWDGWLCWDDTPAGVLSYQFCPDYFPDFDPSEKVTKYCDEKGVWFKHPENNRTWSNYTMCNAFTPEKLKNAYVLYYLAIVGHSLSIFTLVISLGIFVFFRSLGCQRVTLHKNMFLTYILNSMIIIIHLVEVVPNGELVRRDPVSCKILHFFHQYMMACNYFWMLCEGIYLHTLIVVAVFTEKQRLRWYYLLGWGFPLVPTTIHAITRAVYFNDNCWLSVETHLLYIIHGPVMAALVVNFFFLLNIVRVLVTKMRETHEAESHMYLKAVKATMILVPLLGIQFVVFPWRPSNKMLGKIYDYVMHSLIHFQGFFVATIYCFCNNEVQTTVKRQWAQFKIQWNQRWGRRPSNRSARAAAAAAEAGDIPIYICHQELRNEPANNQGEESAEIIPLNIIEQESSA
# [6] = system: Rattus norvegicus; experiment: Appetite suppressing activity in rat assessed as reduction in food intake administered subcutaneously measured for 48 hrs; assay type: functional, organism-based; conditions: dose 3-100 nmol/kg, route sc
# [7] = system: Rattus norvegicus; experiment: Appetite suppressing activity in HFD-fed DIO rat model assessed as reduction in food intake at 0.7 to 22 nmol/kg, sc qd measured for 1 to 2 hrs; assay type: functional, organism-based; conditions: dose 0.7-22 nmol/kg, time 1-2 hrs
# [8] = system: Canis familiaris; experiment: Appetite suppressing activity in dog assessed as reduction in food intake at 3 nmol/kg, sc measured for 48 hrs; assay type: functional, organism-based; conditions: Canis lupus familiaris
# [9] = target: T2, Amylin receptor AMY3; CALCR/RAMP3 (Homo sapiens, UniProt O60896+P30988); experiment: Agonist activity at human AMY3R complex of CTR/RAMP3 expressed in Baby hamster kidney cells incubated for 3 hrs followed by medium replacement without compound measured after 30 mins by luciferase reporter assay; assay type: functional, cell-based, Baby hamster kidney cell
# T2 sequence (P30988 whole entry): T1 sequence (P30988 whole entry)
# T2 sequence (O60896 whole entry): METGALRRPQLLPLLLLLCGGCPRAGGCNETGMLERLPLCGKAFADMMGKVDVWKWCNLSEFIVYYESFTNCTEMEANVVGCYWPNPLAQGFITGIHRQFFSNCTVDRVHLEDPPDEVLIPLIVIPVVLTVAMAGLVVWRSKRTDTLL
# [10] = target: T3, Calcitonin receptor (Rattus norvegicus, UniProt P32214); experiment: Displacement of 125I-Calcitonin from rat CTR expressed in Baby hamster kidney cell membrane incubated for 120 mins by SPA method; assay type: cell membranes
# T3 sequence (P32214 whole entry): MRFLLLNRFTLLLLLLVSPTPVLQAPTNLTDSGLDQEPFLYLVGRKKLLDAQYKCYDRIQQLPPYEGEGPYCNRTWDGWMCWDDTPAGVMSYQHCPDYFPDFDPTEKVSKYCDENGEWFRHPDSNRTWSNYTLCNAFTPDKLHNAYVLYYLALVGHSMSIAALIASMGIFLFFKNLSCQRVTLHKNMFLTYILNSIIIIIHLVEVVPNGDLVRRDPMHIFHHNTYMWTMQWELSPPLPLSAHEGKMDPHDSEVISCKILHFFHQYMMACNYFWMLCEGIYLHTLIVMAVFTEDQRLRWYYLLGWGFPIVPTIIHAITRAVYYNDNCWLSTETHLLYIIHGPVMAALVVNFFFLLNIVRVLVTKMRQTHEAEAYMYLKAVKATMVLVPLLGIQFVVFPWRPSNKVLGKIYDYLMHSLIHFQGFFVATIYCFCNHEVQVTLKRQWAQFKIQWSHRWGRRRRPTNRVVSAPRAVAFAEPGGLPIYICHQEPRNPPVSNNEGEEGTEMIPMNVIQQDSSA
# [11] = Terminal half life in rabbit at 2 nmol/kg, iv; assay type: ADME, Oryctolagus cuniculus; conditions: in vivo, read-out: beta t1/2 (converted)
# [12] = target: Amylin receptor AMY1, CALCR/RAMP1 (Homo sapiens, UniProt O60894+P30988); experiment: Agonist activity at human AMY1R complex of CTR/RAMP1 transduced in human HeLa cells by cAMP assay; assay type: functional, cell-based
# Chain of Amylin receptor AMY1, CALCR/RAMP1 (O60894 whole entry, one chain of several): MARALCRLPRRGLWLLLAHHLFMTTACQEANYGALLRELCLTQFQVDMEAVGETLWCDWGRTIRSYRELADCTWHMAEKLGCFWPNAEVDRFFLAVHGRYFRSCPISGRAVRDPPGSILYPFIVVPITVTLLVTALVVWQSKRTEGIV
# [13] = system: Rattus norvegicus; experiment: Appetite suppressing activity in HFD-fed DIO rat model assessed as reduction in body weight at 0.7 to 22 nmol/kg, sc qd measured after 15 days; assay type: functional, organism-based; conditions: dose 0.7-22 nmol/kg, time 15.0 day
# [14] = system: Rattus norvegicus; experiment: Appetite suppressing activity in rat assessed as reduction in food intake at 3 nmol/kg, sc measured after 24 hrs relative to control; assay type: functional; set-up: scale not given: the % may be the effect or the level left
# [15] = system: Canis familiaris; experiment: Appetite suppressing activity in dog assessed as reduction in food intake at 300 nmol/kg, sc measured for 48 hrs relative to control; assay type: functional, Canis lupus familiaris; set-up: scale not given: the % may be the effect or the level left
# [16] = system: Canis familiaris; experiment: Appetite suppressing activity in dog assessed as reduction in food intake administered subcutaneously measured for 48 hrs; assay type: functional, organism-based; conditions: Canis lupus familiaris, dose 3-300 nmol/kg, route sc
# [17] = Solubility of compound at pH 8 incubated overnight by UPLC analysis; assay type: physicochemical; conditions: buffer
# [18] = system: Rattus norvegicus; experiment: Appetite suppressing activity in HFD-fed DIO rat model assessed as body weight lost at 22 nmol/kg, sc qd measured after 21 days; assay type: functional; conditions: time 21 day
# [19] = target: Calcitonin-gene-related peptide receptor, CALCRL/RAMP1 (Homo sapiens, UniProt O60894+Q16602); experiment: Agonist activity at human CGRPR complex of CRLR/RAMP1 transduced in human HeLa cells by cAMP assay; assay type: functional, cell-based
# Chain of Calcitonin-gene-related peptide receptor, CALCRL/RAMP1 (O60894 whole entry): as the sequence (O60894 whole entry, one chain of several) above
# Chain of Calcitonin-gene-related peptide receptor, CALCRL/RAMP1 (Q16602 whole entry): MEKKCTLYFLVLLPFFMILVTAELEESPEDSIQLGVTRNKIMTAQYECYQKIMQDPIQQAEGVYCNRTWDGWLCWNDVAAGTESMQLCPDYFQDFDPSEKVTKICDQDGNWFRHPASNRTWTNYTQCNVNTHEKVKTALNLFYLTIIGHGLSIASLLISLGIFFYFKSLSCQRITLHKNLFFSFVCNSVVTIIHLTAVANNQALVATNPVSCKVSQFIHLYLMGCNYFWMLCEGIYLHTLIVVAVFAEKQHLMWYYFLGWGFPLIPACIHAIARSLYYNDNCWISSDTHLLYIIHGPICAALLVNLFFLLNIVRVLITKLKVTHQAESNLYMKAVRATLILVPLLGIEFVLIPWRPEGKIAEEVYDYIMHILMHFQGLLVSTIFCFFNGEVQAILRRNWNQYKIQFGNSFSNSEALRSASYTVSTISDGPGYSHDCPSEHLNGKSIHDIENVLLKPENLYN
# [20] = target: T3, Calcitonin receptor; experiment: Agonist activity at rat CTR expressed in Baby hamster kidney cells incubated for 3 hrs by cAMP assay; assay type: functional, cell-based, Baby hamster kidney cell
# [21] = Solubility of compound at pH 5 incubated overnight by UPLC analysis; assay type: physicochemical; conditions: buffer
# [22] = system: Rattus norvegicus; experiment: Appetite suppressing activity in rat assessed as reduction in food intake at 3 nmol/kg, sc measured after 48 hrs relative to control; assay type: functional; set-up: scale not given: the % may be the effect or the level left
# [23] = system: Rattus norvegicus; experiment: Appetite suppressing activity in rat assessed as reduction in food intake at 30 nmol/kg, sc measured for 24 to 48 hrs relative to control; assay type: functional; set-up: scale not given: the % may be the effect or the level left; conditions: time 24-48 hrs
# [24] = system: Rattus norvegicus; experiment: Appetite suppressing activity in HFD-fed DIO rat model assessed as reduction in fat mass administered subcutaneously once daily measured after 21 days; assay type: functional, organism-based; conditions: dose 0.7-22 nmol/kg, route sc, time 21.0 day
smiles,measurement,setting,value
CC[C@H](C)[C@H](NC(=O)[C@H](C)NC(=O)CNC(=O)[C@H](Cc1ccccc1)NC(=O)[C@H](CC(N)=O)NC(=O)[C@@H]1CCCN1C(=O)[C@H](CO)NC(=O)[C@H](CO)NC(=O)[C@H](Cc1c[nH]cn1)NC(=O)[C@H](CCCNC(=N)N)NC(=O)[C@H](CC(C)C)NC(=O)[C@H](Cc1ccccc1)NC(=O)[C@H](CC(=O)O)NC(=O)[C@H](C)NC(=O)[C@H](CC(C)C)NC(=O)[C@H](CCCNC(=N)N)NC(=O)[C@H](CCC(N)=O)NC(=O)[C@@H](NC(=O)[C@H](C)NC(=O)[C@@H]1CSSC[C@H](NC(=O)[C@@H](N)CCCCN)C(=O)N[C@@H](CC(N)=O)C(=O)N[C@@H]([C@@H](C)O)C(=O)N[C@@H](C)C(=O)N[C@@H]([C@@H](C)O)C(=O)N1)[C@@H](C)O)C(=O)N1CCC[C@H]1C(=O)N[C@@H](CO)C(=O)N[C@@H](CO)C(=O)N[C@H](C(=O)N[C@@H](CC(N)=O)C(=O)N[C@H](C(=O)NCC(=O)N[C@@H](CO)C(=O)N[C@@H](CCCNC(=N)N)C(=O)N[C@H](C(=O)N[C@@H](Cc1ccc(O)cc1)C(N)=O)[C@@H](C)O)C(C)C)[C@@H](C)O,Activity,[1],Non-Toxic
same,Activity,[2],Dose-Dependent Effect
same,Activity,[3],32 g
same,solubility,[4],≥ 200 µM
same,EC50,[5],1.74 nM
same,Activity,[6],Dose-Dependent Effect
same,Activity,[7],Active
same,Activity,[8],inactive
same,EC50,[9],0.177 nM
same,IC50,[10],135 nM
same,half-life,[11],~3000 min
same,EC50,[12],0.0575 nM
same,Activity,[13],inactive
same,Activity,[14],25%
same,Activity,[15],90%
same,Activity,[16],Dose-Dependent Effect
same,solubility,[17],110 µM
same,Activity,[18],69.6 g
same,EC50,[19],269 nM
same,EC50,[20],102 nM
same,solubility,[21],≥ 200 µM
same,Activity,[22],15%
same,Activity,[23],50%
same,Activity,[24],Dose-Dependent Effect

# Source: ChEMBL document CHEMBL5523739, “NN1213 - A Potent, Long-Acting, and Selective Analog of Human Amylin” (J Med Chem, 2024)
